Tests used:
Type in all cases: cell-based, mouse
[1] = system: RAW264.7 cells; assay: MTT cell viability assay; conditions: 10 µg/mL, 24 h
Description: The mouse macrophage cell line RAW264.7 was obtained from the American Type Culture Collection (ATCC, Manassas, VA, USA). The cells were cultured in DMEM supplemented with 10% fetal bovine serum (FBS), penicillin (100 U/mL), and streptomycin (100 μg/mL) at 37 °C with 5% CO2. The medium was replaced every 2 days. After treatment with chemicals, the cell morphological changes were observed under a microscope and images are captured before cell viability assay.
Cell viability was determined calorimetrically using a 3-(4,5-dimethylthiazole-2-yl)-2,5-diphenyl tetrazolium bromide (MTT) reagent (5 mg/mL in phosphate buffered saline (PBS), Duchefa Biochemie, Haarlem, The Netherlands). The MTT assay procedures were performed as described previously. Briefly, a 24-well plate (5 × 10^4 cells/well) was seeded with RAW264.7, a mouse macrophage cell line. After 24 h of chemical treatment, each well was filled with 20 µL of 5 mg/mL MTT solution (0.1 mg/mL) and incubated for 4 h. After aspirating the supernatants, the formazan crystals in each well were dissolved in 200 µL of dimethyl sulfoxide (DMSO) for 30 min at 37 °C, and the 24-well plates were read at 570 nm with a microplate reader (Bio-Rad, Hercules, CA, USA). Data are expressed as a percentage of viable cells compared with the control.

[2] = system: iNOS mRNA in LPS-stimulated RAW264.7 cells; assay: iNOS mRNA expression by RT-PCR; conditions: 1 or 3 µg/mL, LPS 1 µg/mL; n = 5, p < 0.05
Description: (§1) Total RNA was isolated from cultured RAW264.7 cells using TRIzol reagent (Ambion®, Carlsbad, CA, USA) according to the manufacturer’s instructions. First strand cDNA was synthesized from the total RNA (3 μg) using oligo dT (DiaStar RT Kit, SolGent, Daejeon, Korea) and was used as a template for PCR amplification with G-Taq polymerase (Cosmogenetech, Seoul, Korea). The first-strand cDNA was quantified using a spectrophotometer (NanoDrop® ND-1000, NanoDrop Technologies, Wilmington, […], USA). The quantified cDNA was used as a template. PCR assay was performed with specific primers for inducible nitric oxide (iNOS), IL-1β, and TNF-α. The PCR steps included initial denaturation at 94 °C for 5 min, then 28 cycles at 94 °C for 30 s, 57 °C for 30 s, and 72 °C for 30 s, and a final extension step at 72 °C for 10 min. The amplified PCR products were separated in 1.5% agarose gel, and the gel was stained with ethidium bromide. The bands were visualized using the iBright^TM CL1500 imaging system (Thermo Scientific Fisher/Life Technologies Holdings Pte Ltd., Singapore). The DNA fragments were directly sequenced with the ABI PRISM® 3100-Avant Genetic Analyzer (Applied Biosystems, Carlsbad, CA, USA).

[3] = system: IL-1β mRNA in LPS-stimulated RAW264.7 cells; assay: IL-1β mRNA expression by RT-PCR; conditions: 1 or 3 µg/mL, n = 6, p < 0.05
Description: as §1

[4] = system: TNF-α mRNA in LPS-stimulated RAW264.7 cells; assay: TNF-α mRNA expression by RT-PCR; conditions: 1 or 3 µg/mL, n = 6, p < 0.05
Description: as §1

[5] = system: TNF-α in LPS-stimulated RAW264.7 cells; assay: TNF-α concentration by ELISA; conditions: 1 or 3 µg/mL 2 h prior to LPS 1 µg/mL for 16 h; n = 6, p < 0.05
Description: RAW264.7 cell (2 × 10^5 cells/well) were cultured in a 6-well plate for 24 h and treated with compounds (1 or 3 µg/mL) 2 h prior to LPS treatment, followed by LPS (1 µg/mL) for 16 h. The concentration of pro-inflammatory cytokines in the collected supernatant was quantified using an ELISA kit (R&D system, Minneapolis, MN, USA) according to the manufacturer’s instructions. Briefly, 50 μL of assay diluent, sample, and standards were added to the ELISA well plate, which were pre-coated with anti-mouse IL-1β and TNF-α antibody. The plates were then covered with adhesive strip, agitated, and incubated for 2 h at room temperature. The ELISA well-plate was washed five times with a wash buffer, then 100 μL of mouse IL-1β and TNF-α conjugates was added and incubated at room temperature for 2 h. The plate was washed five times, 100 μL of substrate solution was added to each well, and incubated for 30 min in the dark. The reaction was quenched by the addition of 100 μL stop solution to each well, and the absorbance was read 450 nm/570 nm with an ELISA reader (Molecular Devices, Sunnyvale, CA, USA).

[6] = system: NF-κB p65 in LPS-stimulated RAW264.7 cells; assay: NF-κB nuclear translocation, immunocytochemistry; conditions: pre-treatment 2 h prior to LPS 1 µg/mL for 16 h
Description: RAW264.7 cells cultured on round cover slips coated with poly-L-lysine were treated with triterpenoids (1 or 3 µg/mL) 2 h prior to LPS treatment, followed by LPS (1 µg/mL) for 16 h. The cells were washed with 1 x phosphate buffered saline (PBS) and fixed with 4% paraformaldehyde for 30 min. After washing the fixed cells with PBS, the cells were permeabilized with a blocking buffer (1% normal goat serum and 0.2% Triton X-100 in PBS) for 30 min at room temperature, and were incubated with an anti-NF-κB p65 antibody (1:200 dilution, Cell Signaling Technology, Danvers, MA, USA) at 4 °C overnight. After three washes in PBS, the cells were incubated in the dark for 1 h with the mixture of FITC-conjugated anti-rabbit IgG fluorescent secondary antibody diluted at 1:500 in PBS. Finally, the cells were stained with 2 µg/mL Hoechst for nuclei staining. The cells were washed with PBS, wet-mounted on glass slides, and observed using a confocal laser-scanning microscope (Olympus, Tokyo, Japan). The negative control (NC) was analyzed by omitting the primary antibody.

CC(C)=CCC/C(C)=C/C[C@@H](O)/C(C)=C/CC[C@@]1(C)[C@H](CCCO)/C(=C(/C)C=O)CC[C@]1(C)O [Compound 1, isoiridogermanal]
reduction of cell viability [1]: 28.8 ± 4.4%
LPS-induced iNOS mRNA upregulation [2]: significantly reduced
LPS-upregulated IL-1β mRNA level [3]: noticeably decreased
LPS-upregulated TNF-α mRNA level [4]: noticeably decreased
LPS-upregulated TNF-α concentration [5]: noticeably decreased
NF-κB translocation to the nucleus (immunocytochemical staining) [6]: suppressed

CC(C)=CCCC(C)=CCC(O)C(C)=CCCC1(C)C(CCCO)C(=C(C)C=O)CCC1(C)O (stereo not drawn) [Compound 2, iridobelamal A]
reduction of cell viability [1]: 23.4 ± 5.1%
LPS-induced iNOS mRNA upregulation [2]: significantly reduced
LPS-upregulated IL-1β mRNA level [3]: noticeably decreased
LPS-upregulated TNF-α mRNA level [4]: noticeably decreased
LPS-upregulated TNF-α concentration [5]: noticeably decreased
NF-κB translocation to the nucleus (immunocytochemical staining) [6]: suppressed

Source: article PMC8588536, “Iridal-Type Triterpenoids Displaying Human Neutrophil Elastase Inhibition and Anti-Inflammatory Effects from Belamcanda chinensis” (Molecules, 2021)
